Measured values taken from PubChem BioAssay (NCI).
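These data come from cells grown in 96-well plates and exposed to compound for 48 hours at five concentrations. TGI denotes the concentration required for complete inhibition of growth.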

Assays:
Assay in all cases: NCI anticancer screen, dose series, 48 h
DLD-1 colon = tested on: DLD-1 colon
HL-60(TB) leukemia = tested on: HL-60(TB) leukemia
A498 renal = tested on: A498 renal
SF-295 CNS = tested on: SF-295 CNS
HCC-2998 colon = tested on: HCC-2998 colon
NCI-H23 lung = tested on: NCI-H23 lung
NCI-H522 lung = tested on: NCI-H522 lung
UACC-257 melanoma = tested on: UACC-257 melanoma
M19-MEL melanoma = tested on: M19-MEL melanoma
SW-620 colon = tested on: SW-620 colon
U251 CNS = tested on: U251 CNS
RXF 393 renal = tested on: RXF 393 renal
CAKI-1 renal = tested on: CAKI-1 renal
HOP-18 NSCLC = tested on: HOP-18 NSCLC
M14 melanoma = tested on: M14 melanoma
SNB-78 CNS = tested on: SNB-78 CNS
RPMI-8226 leukemia = tested on: RPMI-8226 leukemia
LOX IMVI melanoma = tested on: LOX IMVI melanoma
HT29 colon = tested on: HT29 colon
COLO 205 colon = tested on: COLO 205 colon
SN12C renal = tested on: SN12C renal
786-0 renal = tested on: 786-0 renal
MOLT-4 leukemia = tested on: MOLT-4 leukemia
KM12 colon = tested on: KM12 colon
K-562 leukemia = tested on: K-562 leukemia
NCI-H226 lung = tested on: NCI-H226 lung
XF 498 CNS = tested on: XF 498 CNS
IGROV1 ovarian = tested on: IGROV1 ovarian
SNB-19 CNS = tested on: SNB-19 CNS
DMS 273 small cell lung = tested on: DMS 273 small cell lung
UACC-62 melanoma = tested on: UACC-62 melanoma
SF-539 CNS = tested on: SF-539 CNS
OVCAR-8 ovarian = tested on: OVCAR-8 ovarian
KM20L2 colon = tested on: KM20L2 colon
TK-10 renal = tested on: TK-10 renal
MALME-3M melanoma = tested on: MALME-3M melanoma
NCI-H460 lung = tested on: NCI-H460 lung
HCT-116 colon = tested on: HCT-116 colon
A549 NSCLC = tested on: A549 NSCLC
OVCAR-4 ovarian = tested on: OVCAR-4 ovarian
SR leukemia = tested on: SR leukemia
SK-MEL-5 melanoma = tested on: SK-MEL-5 melanoma
SK-MEL-28 melanoma = tested on: SK-MEL-28 melanoma
SF-268 CNS = tested on: SF-268 CNS
LXFL 529 NSCLC = tested on: LXFL 529 NSCLC
HOP-62 NSCLC = tested on: HOP-62 NSCLC
OVCAR-3 ovarian = tested on: OVCAR-3 ovarian
HOP-92 NSCLC = tested on: HOP-92 NSCLC
CCRF-CEM leukemia = tested on: CCRF-CEM leukemia
HCT-15 colon = tested on: HCT-15 colon
OVCAR-5 ovarian = tested on: OVCAR-5 ovarian
EKVX NSCLC = tested on: EKVX NSCLC
DMS 114 small cell lung = tested on: DMS 114 small cell lung
ACHN renal = tested on: ACHN renal
SK-MEL-2 melanoma = tested on: SK-MEL-2 melanoma
SK-OV-3 ovarian = tested on: SK-OV-3 ovarian
UO-31 renal = tested on: UO-31 renal
SNB-75 CNS = tested on: SNB-75 CNS

**Q.** Which results are given for COC1OC(CBr)C(OC(=O)c2ccccc2)C(O)C1Br (stereo not given)?
**A.** TGI (DLD-1 colon): > 100 µM; TGI (HL-60(TB) leukemia): > 100 µM; TGI (A498 renal): > 100 µM; TGI (SF-295 CNS): > 100 µM; TGI (HCC-2998 colon): > 100 µM; TGI (NCI-H23 lung): > 100 µM; TGI (NCI-H522 lung): > 100 µM; TGI (UACC-257 melanoma): > 10 µM; TGI (M19-MEL melanoma): > 100 µM; TGI (SW-620 colon): > 100 µM; TGI (U251 CNS): > 100 µM; TGI (RXF 393 renal): > 100 µM; TGI (CAKI-1 renal): > 100 µM; TGI (HOP-18 NSCLC): > 100 µM; TGI (M14 melanoma): > 100 µM; TGI (SNB-78 CNS): > 100 µM; TGI (RPMI-8226 leukemia): > 100 µM; TGI (LOX IMVI melanoma): > 100 µM; TGI (HT29 colon): > 100 µM; TGI (COLO 205 colon): > 100 µM; TGI (SN12C renal): > 100 µM; TGI (786-0 renal): > 100 µM; TGI (MOLT-4 leukemia): > 100 µM; TGI (KM12 colon): > 100 µM; TGI (K-562 leukemia): > 100 µM; TGI (NCI-H226 lung): > 100 µM; TGI (XF 498 CNS): > 10 µM; TGI (IGROV1 ovarian): > 10 µM; TGI (SNB-19 CNS): > 100 µM; TGI (DMS 273 small cell lung): > 100 µM; TGI (UACC-62 melanoma): > 100 µM; TGI (SF-539 CNS): > 100 µM; TGI (OVCAR-8 ovarian): > 100 µM; TGI (KM20L2 colon): > 100 µM; TGI (TK-10 renal): > 100 µM; TGI (MALME-3M melanoma): > 100 µM; TGI (NCI-H460 lung): > 100 µM; TGI (HCT-116 colon): > 100 µM; TGI (A549 NSCLC): > 100 µM; TGI (OVCAR-4 ovarian): > 100 µM; TGI (SR leukemia): > 100 µM; TGI (SK-MEL-5 melanoma): > 100 µM; TGI (SK-MEL-28 melanoma): > 100 µM; TGI (SF-268 CNS): > 100 µM; TGI (LXFL 529 NSCLC): > 100 µM; TGI (HOP-62 NSCLC): > 100 µM; TGI (OVCAR-3 ovarian): > 100 µM; TGI (HOP-92 NSCLC): > 100 µM; TGI (CCRF-CEM leukemia): > 100 µM; TGI (HCT-15 colon): > 100 µM; TGI (OVCAR-5 ovarian): > 100 µM

**Q.** With O=c1c2ccccc2c(=O)n2n1CC=CC2 as the molecule, how does the TGI (DLD-1 colon) read?
**A.** > 100 µM

**Q.** And the TGI (HL-60(TB) leukemia)?
**A.** > 100 µM

**Q.** And the TGI (EKVX NSCLC)?
**A.** > 100 µM

**Q.** What about the TGI (A498 renal) of the same molecule?
**A.** > 100 µM

**Q.** What about the TGI (DMS 114 small cell lung) of the same molecule?
**A.** > 100 µM

**Q.** And the TGI (SF-295 CNS)?
**A.** > 100 µM

**Q.** And the TGI (HCC-2998 colon)?
**A.** > 100 µM

**Q.** What about the TGI (NCI-H23 lung) of the same molecule?
**A.** > 100 µM

**Q.** And the TGI (NCI-H522 lung)?
**A.** > 100 µM

**Q.** And the TGI (UACC-257 melanoma)?
**A.** > 100 µM

**Q.** What about the TGI (M19-MEL melanoma) of the same molecule?
**A.** > 100 µM

**Q.** What about the TGI (SW-620 colon) of the same molecule?
**A.** > 100 µM

**Q.** And the TGI (U251 CNS)?
**A.** > 100 µM

**Q.** And the TGI (ACHN renal)?
**A.** > 100 µM

**Q.** What about the TGI (RXF 393 renal) of the same molecule?
**A.** > 100 µM

**Q.** And the TGI (CAKI-1 renal)?
**A.** > 100 µM

**Q.** What about the TGI (HOP-18 NSCLC) of the same molecule?
**A.** > 100 µM

**Q.** What about the TGI (M14 melanoma) of the same molecule?
**A.** > 100 µM

**Q.** And the TGI (SNB-78 CNS)?
**A.** > 100 µM

**Q.** What about the TGI (RPMI-8226 leukemia) of the same molecule?
**A.** > 100 µM

**Q.** And the TGI (LOX IMVI melanoma)?
**A.** > 100 µM

**Q.** And the TGI (HT29 colon)?
**A.** > 100 µM

**Q.** What about the TGI (COLO 205 colon) of the same molecule?
**A.** > 100 µM

**Q.** What about the TGI (SN12C renal) of the same molecule?
**A.** > 100 µM

**Q.** And the TGI (786-0 renal)?
**A.** > 100 µM

**Q.** And the TGI (MOLT-4 leukemia)?
**A.** > 100 µM

**Q.** And the TGI (KM12 colon)?
**A.** > 100 µM

**Q.** What about the TGI (K-562 leukemia) of the same molecule?
**A.** > 100 µM

**Q.** What about the TGI (NCI-H226 lung) of the same molecule?
**A.** > 100 µM

**Q.** What about the TGI (SK-MEL-2 melanoma) of the same molecule?
**A.** > 100 µM

**Q.** And the TGI (IGROV1 ovarian)?
**A.** > 100 µM

**Q.** And the TGI (SNB-19 CNS)?
**A.** > 100 µM

**Q.** And the TGI (DMS 273 small cell lung)?
**A.** > 100 µM

**Q.** What about the TGI (UACC-62 melanoma) of the same molecule?
**A.** > 100 µM

**Q.** And the TGI (SF-539 CNS)?
**A.** > 100 µM

**Q.** And the TGI (SK-OV-3 ovarian)?
**A.** > 100 µM

**Q.** And the TGI (OVCAR-8 ovarian)?
**A.** > 100 µM

**Q.** And the TGI (KM20L2 colon)?
**A.** > 100 µM

**Q.** What about the TGI (TK-10 renal) of the same molecule?
**A.** > 100 µM

**Q.** And the TGI (UO-31 renal)?
**A.** > 100 µM

**Q.** And the TGI (MALME-3M melanoma)?
**A.** > 100 µM

**Q.** What about the TGI (HCT-116 colon) of the same molecule?
**A.** > 100 µM

**Q.** What about the TGI (A549 NSCLC) of the same molecule?
**A.** > 100 µM

**Q.** What about the TGI (OVCAR-4 ovarian) of the same molecule?
**A.** > 100 µM

**Q.** What about the TGI (SK-MEL-5 melanoma) of the same molecule?
**A.** > 100 µM

**Q.** What about the TGI (SK-MEL-28 melanoma) of the same molecule?
**A.** > 100 µM

**Q.** What about the TGI (SF-268 CNS) of the same molecule?
**A.** > 100 µM

**Q.** What about the TGI (LXFL 529 NSCLC) of the same molecule?
**A.** > 100 µM

**Q.** And the TGI (OVCAR-3 ovarian)?
**A.** > 100 µM

**Q.** What about the TGI (HOP-92 NSCLC) of the same molecule?
**A.** > 100 µM

**Q.** And the TGI (SNB-75 CNS)?
**A.** > 100 µM

**Q.** And the TGI (CCRF-CEM leukemia)?
**A.** > 100 µM

**Q.** What about the TGI (HCT-15 colon) of the same molecule?
**A.** > 100 µM

**Q.** And the TGI (OVCAR-5 ovarian)?
**A.** > 100 µM
